In ChEMBL document CHEMBL4402571, “Methylation of Daptomycin Leading to the Discovery of Kynomycin, a Cyclic Lipodepsipeptide Active against Resistant Pathogens” (J Med Chem, 2020):
≈ marks a conversion by molar mass, not a printed value. Calls of active or inactive are those of the source. The calls are words filed in the database; no cut-off is given here.

How the values were obtained:
Enterococcus faecium [1] = assay: Antibacterial activity against Enterococcus faecium ET60 by broth microdilution method; format: functional
Enterococcus faecalis [2] = assay: Antibacterial activity against Streptococcus faecalis by broth microdilution method; format: functional
Enterococcus faecium [3] = assay: Antibacterial activity against Enterococcus faecium ET6 by broth microdilution method; format: functional
Staphylococcus aureus [4] = assay: Antibacterial activity against methicillin-resistant Staphylococcus aureus SA14 by broth microdilution method; format: functional
Staphylococcus aureus [5] = assay: Antibacterial activity against methicillin-resistant Staphylococcus aureus SA11 by broth microdilution method; format: functional
Staphylococcus aureus [6] = assay: Antibacterial activity against methicillin-resistant Staphylococcus aureus SA86 by broth microdilution method; format: functional
Staphylococcus aureus [7] = assay: Antibacterial activity against methicillin-resistant Staphylococcus aureus SA88 by broth microdilution method; format: functional
Staphylococcus aureus [8] = assay: Antibacterial activity against Staphylococcus aureus ATCC 29213 by broth microdilution method; format: functional
Enterococcus faecalis [9] = assay: Antibacterial activity against Enterococcus faecalis ATCC 29212 by broth microdilution method; format: functional
Staphylococcus aureus [10] = assay: Bactericidal activity against Staphylococcus aureus ATCC 29213 assessed as reduction in bacterial load at 4 to 8 ug/ml preincubated for up to 24 hrs followed by subculturing on LB agar plate by time-kill assay; format: functional, organism-based
Enterococcus faecalis [11] = assay: Bactericidal activity against Enterococcus faecalis ATCC 29212 assessed as reduction in bacterial load at 16 ug/ml preincubated for up to 24 hrs followed by subculturing on LB agar plate by time-kill assay; format: functional, organism-based
Staphylococcus aureus [12] = assay: Antibacterial activity against methicillin-resistant Staphylococcus aureus ATCC 43300 infected in Galleria mellonella larvae assessed as increase in larvae survival at 50 mg/kg measured up to 72 hrs post-infection; format: functional, organism-based
Staphylococcus aureus [13] = assay: Antibacterial activity against daptomycin-resistant Staphylococcus aureus SA11 infected in Galleria mellonella larvae assessed as increase in larvae survival at 50 mg/kg measured up to 72 hrs post-infection; format: functional, organism-based
Staphylococcus aureus [14] = assay: Antibacterial activity against daptomycin-resistant Staphylococcus aureus SA11 infected in NIH mouse model of neutropenic thigh infection assessed reduction in bacterial level in thigh at 50 mg/kg, sc administered at 2 and 12 hrs post infection and measured at 48 to 60 hrs post-infection; format: functional, organism-based
Staphylococcus aureus [15] = assay: Antibacterial activity against Staphylococcus aureus USA300 infected in Balb/c mouse model of sepsis assessed as bacterial eradication in kidney at 1.25 mg/kg, sc administered twice daily for 3 days starting from 1 hr post-infection followed by subculturing on LB agar plate and measured after overnight incubation; format: functional, organism-based
Enterococcus faecalis [16] = assay: Antibacterial activity against Enterococcus faecalis ZS129 infected in Galleria mellonella larvae assessed as increase in larvae survival at 50 mg/kg measured up to 72 hrs post-infection; format: functional, organism-based
Enterococcus faecalis [17] = assay: Antibacterial activity against Enterococcus faecalis T1027 infected in Galleria mellonella larvae assessed as increase in larvae survival at 50 mg/kg measured 96 hrs post-infection; format: functional, organism-based
Enterococcus faecalis [18] = assay: Antibacterial activity against daptomycin-resistant Enterococcus faecalis T1027 infected in NIH mouse model of neutropenic thigh infection assessed reduction in bacterial level in thigh at 50 mg/kg, sc administered at 2 and 12 hrs post infection and measured at 48 to 60 hrs post-infection; format: functional, organism-based
Enterococcus faecalis [19] = assay: Antibacterial activity against Enterococcus faecalis ATCC 29212 at sub-MIC after 7 serial passages by broth microdilution method; format: functional, organism-based
Staphylococcus aureus [20] = assay: Induction of cell membrane integrity disruption in Staphylococcus aureus ATCC 29213 at 8 ug/ml measured after 0.5 to 2 hrs by SYTOX green staining based fluorescence assay; format: organism-based
Enterococcus faecalis [21] = assay: Induction of cell membrane integrity disruption in Enterococcus faecalis ATCC 29212 at 16 ug/ml measured after 0.5 to 2 hrs by SYTOX green staining based fluorescence assay; format: organism-based
Enterococcus faecalis [22] = assay: Induction of cell membrane integrity disruption in Enterococcus faecalis ATCC 29212 at 16 ug/ml measured after 1 hr by SYTOX green staining based confocal laser scanning microscopic analysis; format: organism-based
Staphylococcus aureus [23] = assay: Bactericidal activity against Staphylococcus aureus ATCC 29213 incubated prior to replating on agar plate measured after overnight incubation; format: functional
Enterococcus faecalis [24] = assay: Bactericidal activity against Enterococcus faecalis ATCC 29212 incubated prior to replating on agar plate measured after overnight incubation; format: functional
Staphylococcus aureus [25] = assay: Antibacterial activity against Staphylococcus aureus USA300 infected in Balb/c mouse model of sepsis assessed as mouse survival at 0.925 mg/kg, sc administered twice daily for 5 days starting from 1 hr post-infection relative to control; format: functional
Staphylococcus aureus [26] = assay: Antibacterial activity against methicillin-resistant Staphylococcus aureus ATCC 33591 infected in iv dosed CD-1 ICR mouse administered as single dose measured after 7 days; format: functional; settings: ATCC 33591, iv, 168 h
Staphylococcus aureus [27] = assay: Antibacterial activity against methicillin-resistant Staphylococcus aureus 0114 infected in iv dosed CD-1 ICR mouse administered as single dose measured after 7 days; format: functional; settings: Staphylococcus aureus, 0114, iv, 168 h
Enterococcus faecalis [28] = assay: Antibacterial activity against Enterococcus faecalis ZS129 infected in Galleria mellonella larvae assessed as larvae survival at 50 mg/kg measured at 96 hrs post-infection relative to control; format: functional; settings: ZS129, 96 h
Enterococcus faecalis [29] = assay: Antibacterial activity against Enterococcus faecalis T1027 infected in Galleria mellonella larvae assessed as larvae survival at 50 mg/kg measured at 96 hrs post-infection relative to control; format: functional; settings: T1027, 96 h
Staphylococcus aureus [30] = assay: Antibacterial activity against Staphylococcus aureus ATCC 29213 assessed as mutation prevention concentration measured after 72 hrs; format: functional; settings: ATCC 29213, 72 h
Enterococcus faecalis [31] = assay: Antibacterial activity against Enterococcus faecalis ATCC 29212 assessed as mutation prevention concentration measured after 72 hrs; format: functional; settings: ATCC 29212, 72 h

Row | SMILES | MIC (Enterococcus faecium [1]) [µg/mL] | MIC (Enterococcus faecalis [2]) [µg/mL] | MIC (Enterococcus faecium [3]) [µg/mL] | MIC (Staphylococcus aureus [4]) [µg/mL] | MIC (Staphylococcus aureus [5]) [µg/mL] | MIC (Staphylococcus aureus [6]) [µg/mL] | MIC (Staphylococcus aureus [7]) [µg/mL] | MIC (Staphylococcus aureus [8]) [µg/mL] | MIC (Enterococcus faecalis [9]) [µg/mL] | also measured
1 | CCCCCCCCCC(=O)N[C@@H](Cc1c[nH]c2ccccc12)C(=O)N[C@@H](CC(N)=O)C(=O)N[C@@H](CC(=O)O)C(=O)N[C@@H]1C(=O)N(C)CC(=O)N[C@@H](CCCN)C(=O)N[C@@H](CC(=O)O)C(=O)N[C@H](C)C(=O)N[C@@H](CC(=O)O)C(=O)NCC(=O)N[C@H](CO)C(=O)N[C@@H]([C@H](C)CC(=O)O)C(=O)N[C@@H](CC(=O)c2ccccc2N)C(=O)O[C@@H]1C | 4 (≈ 2.45 µM) | 2 (≈ 1.22 µM) | 8 (≈ 4.89 µM) | 0.25 (≈ 0.153 µM) | 0.5 (≈ 0.306 µM) | 0.5 (≈ 0.306 µM) | 0.5 (≈ 0.306 µM) | 0.5 (≈ 0.306 µM) | 8 (≈ 4.89 µM) | –
2 | CCCCCCCCCC(=O)N[C@@H](Cc1c[nH]c2ccccc12)C(=O)N[C@@H](CC(N)=O)C(=O)N[C@@H](CC(=O)O)C(=O)N[C@@H]1C(=O)NCC(=O)N[C@@H](CCCN)C(=O)N[C@H](CC(=O)O)C(=O)N[C@H](C)C(=O)N[C@@H](CC(=O)O)C(=O)NCC(=O)N[C@H](CO)C(=O)N[C@@H]([C@@H](C)CC(=O)O)C(=O)N[C@@H](CC(=O)c2ccccc2N)C(=O)O[C@@H]1C | – | – | – | – | – | – | – | – | – | Activity (Staphylococcus aureus [10]): Active; Activity (Enterococcus faecalis [11]): Active; Activity (Staphylococcus aureus [12]): Active; Activity (Staphylococcus aureus [13]): Active; Activity (Staphylococcus aureus [14]): Active; Activity (Staphylococcus aureus [15]): inactive; Activity (Enterococcus faecalis [16]): Active; Activity (Enterococcus faecalis [17]): Active; Activity (Enterococcus faecalis [18]): Active; Activity (Enterococcus faecalis [19]): inactive; Activity (Staphylococcus aureus [20]): Active; Activity (Enterococcus faecalis [21]): Active; Activity (Enterococcus faecalis [22]): Active
3 | CCCCCCCCCC(=O)N[C@@H](Cc1c[nH]c2ccccc12)C(=O)N[C@H](CC(N)=O)C(=O)N[C@@H](CC(=O)O)C(=O)N[C@@H]1C(=O)NCC(=O)N[C@@H](CCCN)C(=O)N[C@@H](CC(=O)O)C(=O)N[C@H](C)C(=O)N[C@@H](CC(=O)O)C(=O)NCC(=O)N[C@H](CO)C(=O)N[C@@H]([C@H](C)CC(=O)O)C(=O)N[C@@H](CC(=O)c2ccccc2NC)C(=O)O[C@@H]1C | 1 (≈ 0.612 µM) | 0.5 (≈ 0.306 µM) | 1 (≈ 0.612 µM) | 0.25 (≈ 0.153 µM) | 0.5 (≈ 0.306 µM) | 0.25 (≈ 0.153 µM) | 0.25 (≈ 0.153 µM) | 0.25 (≈ 0.153 µM) | 1 (≈ 0.612 µM) | MBC (Staphylococcus aureus [23]): 0.06 µg/mL (≈ 0.0367 µM); MBC (Enterococcus faecalis [24]): 4 µg/mL (≈ 2.45 µM); survival at 0.925 mg/kg (Staphylococcus aureus [25]): 100%; ED50 (Staphylococcus aureus [26]): 1.38 mg/kg; ED50 (Staphylococcus aureus [27]): 1.65 mg/kg; survival at 50 mg/kg (Enterococcus faecalis [28]): 40%; survival at 50 mg/kg (Enterococcus faecalis [29]): 60%; MPC (Staphylococcus aureus [30]): 8 µg/mL; MPC (Enterococcus faecalis [31]): 16 µg/mL
4 | CCCCCCCCCC(=O)N[C@@H](Cc1cn(C)c2ccccc12)C(=O)N[C@@H](CC(N)=O)C(=O)N[C@@H](CC(=O)O)C(=O)N[C@@H]1C(=O)NCC(=O)N[C@@H](CCCN)C(=O)N[C@@H](CC(=O)O)C(=O)N[C@H](C)C(=O)N[C@@H](CC(=O)O)C(=O)NCC(=O)N[C@H](CO)C(=O)N[C@@H]([C@H](C)CC(=O)O)C(=O)N[C@@H](CC(=O)c2ccccc2N)C(=O)O[C@@H]1C | 1 (≈ 0.612 µM) | – | 1 (≈ 0.612 µM) | 0.5 (≈ 0.306 µM) | 2 (≈ 1.22 µM) | 0.5 (≈ 0.306 µM) | 0.25 (≈ 0.153 µM) | 0.5 (≈ 0.306 µM) | 2 (≈ 1.22 µM) | –
